Measured values reported in patent publication US8617614B2, “Sustained release preparation for tissue regeneration therapy” (Ono Pharmaceutical Co., Ltd., priority 2006, dated 2013).

Tests used:
[1] = test system: STZ induced diabetes model; assay: Nerve conduction velocity, STZ induced diabetes model; assay type: in vivo; settings: STZ rat, Test Group 3: 3 mg/kg oral twice daily
Experimental: Female Sprague-Dawley rats (8- to 11-week-old; Japan SLC, Inc.) were intraperitoneally administered 40 mg/kg of a citrate buffer (pH, approx. 4.5) of streptozotocin (STZ; Sigma). A normal control group was intraperitoneally given only the citrate buffer. Two weeks after STZ administration, and 4, 8 and 12 weeks after the start of test solution administration, the animals were anesthetized by the intraperitoneal administration of 30 to 45 mg/kg of pentobarbital. Fur was removed from the dorsolumbar region of the rat and the animal was immobilized in the prone position, following which a needle electrode for […] stimulation (NEC Medical Systems) was inserted near the sciatic nerve, a needle electrode for […] stimulation was inserted near the Achilles tendon on the same side, and a recording needle electrode (NEC Medical Systems) was inserted in the plantar muscle on the same side. After checking that the body temperature was in a range of 37 to 38° C., square-wave stimulation (0.5 Hz, 0.1 msec, submax voltage) to the distal and proximal stimulating electrodes was applied using an electrical stimulator (SEN-3301; Nihon Kohden Corporation). The evoked potential was led out via a measuring electrode, input through a bioelectric amplifier (AB-621G, Nihon Kohden Corporation) to an evoked electromyogram averaging program (MTS50061C, Medical Try System) and averaged ten times, and the nerve conduction velocity was computed from the respective distal and proximal conduction times and the electrode interval distances. Measurement was carried out on the left leg (treated side) and right leg (untreated side) in each test group, and the respective average values thereof used as the data. In Groups 2 to 5, the feeding blood sugar level two weeks after STZ administration was measured. Of rats with blood sugar levels above 300 mg/dL, severely diabetic rats were excluded therefrom, and the remaining rats were used as diabetes model animals. Groups were formed in such a way as to make the respective groups uniform with respect to nerve conduction velocity, blood sugar level and body weight. Administration was carried out in accordance with the intended route of administration for clinical use. In Test Group 3, forced administration was carried out orally using a disposable syringe barrel and a rat stomach probe. In Test Group 4, intramuscular administration was carried out uniformly at four places within the muscle along the sciatic nerve in the femoral portion of the left leg. For subcutaneous administration in test Group 5, the animals were ether anesthetized, and subcutaneous administration was carried out in the dorsal region using a disposable syringe barrel and a disposable 25 G syringe needle. The volume of solution administered was computed based on the latest body weight. The amount of microspheres administered indicates the amount of the present drug included.

SDF-1 = SDF-1 production promoting effect, angiogenesis kit culture, ELISA; assay type: cell-based, human; settings: 100 nmol/L
Experimental: (§1) An angiogenesis kit (Kurabo Industries Ltd.) composed of normal human umbilical vein endothelial cells and normal human skin fibroblasts was procured and used.
(§2) Using a carbon dioxide incubator (BNA-121D) and using Angiogenesis Culture 2 provided with the angiogenesis kit as the liquid culture, culturing was carried out in a wet environment at 37° C. with 5% carbon dioxide/95% air.
(§3) Immediately after the kit arrived, the cells were cultured for 3 hours, following which the liquid culture was replaced and culturing was continued. Three days after the start of culturing, the liquid culture was again replaced. Six days after the start of culturing, treatment with the present drug was carried out by replacing the liquid culture. The treatment concentration was set to 100 nmol/L in each case. DMSO treatment was carried out as a negative control. Six, 24, 48 and 72 hours after treatment with the present drug, the culture supernatant was collected and furnished for measurement of the growth factors. The measured growth factors were EGF and SDF-1.
(§4) The culture supernatant was measured with the following ELISA kits.
Human SDF-1α Immunoassay (R&D Systems Inc., DSA00)

[2] = Blood concentration measurement test; assay type: in vivo; settings: male, Crl:CD (Sprague-Dawley), rat, plasma, 10 mg/kg
Experimental: Male Crl:CD (Sprague-Dawley) rats (SPF; Charles River Japan; 8-week-old) were subcutaneously administered the various preparations (microspheres) shown in Table 9 below at a dose of 5 mL/kg under non-fasting conditions. […] The blood thus obtained was centrifuged at 12,000 rpm for 2 minutes, and the supernatant was collected as plasma.
Blood concentration measurements of the present drug in the resulting plasma were carried out by a LC/MS/MS method. Pretreatment of the plasma consisted of adding an internal standard solution to the plasma and diluting with water, then loading into a solid-phase extraction cartridge column (ODS-B) and deproteinization by rinsing with water, followed by elution with methanol, concentration, and drying to hardness. The residue thus obtained was dissolved by adding 0.1% aqueous acetic acid/acetonitrile, and the resulting solution was poured into the LC/MS/MS apparatus.
• Present drug (Precursor ion (m/z)*: 429.2; Product ion (m/z)*: 79.2) • Internal standard (Precursor ion (m/z)*: 445.4; Product ion (m/z)*: 168.1) • *: Mass-to-charge ratio Retention time for present drug: 8.15 minutes • Test Group 1: Microspheres of Test Preparation 1 were administered subcutaneously at a dose of the present drug of 10 mg/kg. • Test Group 2: Microspheres of Test Preparation 2 were administered subcutaneously at a dose of the present drug of 10 mg/kg. • Test Group 3: Administered subcutaneously at a dose of the present drug of 10 mg/kg. • Test Group 4: Administered orally at a dose of the present drug of 10 mg/kg.
The test preparations used on the respective dose groups were formulated as shown below in Table 9. Each of the test preparations was prepared in general accordance with the method described in Preparation Example 1.

[3] = test system: hippocampal CA1 region nerve cells; assay: Number of nerve cells in hippocampal CA1 region, rat 4-VO model (Nissl staining); assay type: in vivo
EGF = EGF production promoting effect, angiogenesis kit culture, ELISA; assay type: cell-based, human; settings: 100 nmol/L
Experimental: as §1, §2, §3, §4
Human EGF Immunoassay (R&D Systems Inc., DEG00)

[4] = right leg (drug-untreated side)
[5] = culture supernatant 72 hours after treatment
[6] = po, Test Group 4: present drug oral 10 mg/kg
[7] = sc, Test Group 3: present drug s.c. 10 mg/kg

- concentration at 1 hour [2, 6]: 785 ng/mL
- concentration at 2 hours [2, 6]: 982 ng/mL
- concentration at 4 hours [2, 6]: 1320 ng/mL
- concentration at 8 hours [2, 6]: 705 ng/mL
- concentration at 1 day [2, 6]: 80 ng/mL
- concentration at 3 days [2, 6]: 0.04 ng/mL
- concentration at 1 hour [2, 7]: 1750 ng/mL
- concentration at 2 hours [2, 7]: 1400 ng/mL
- concentration at 4 hours [2, 7]: 685 ng/mL
- concentration at 8 hours [2, 7]: 870 ng/mL
- concentration at 12 hours ([2]; sc, Test Group 3: present drug s.c. 10 mg/kg, 12 hours): 204 ng/mL
- concentration at 1 day [2, 7]: 1.05 ng/mL
- concentration at 2 days ([2]; sc, Test Group 3: present drug s.c. 10 mg/kg, 2 days): < 0.2 ng/mL
- concentration at 3 days [2, 7]: 0.05 ng/mL
Compound: O=C(O)COc1cccc2c1CCC=C2CCO/N=C(\c1ccccc1)c1cccnc1 [present drug, ({5-[2-({[(1E)-phenyl(pyridin-3-yl)methylene]amino}oxy)ethyl]-7,8-dihydronaphthalen-1-yl}oxy)acetic acid]
- left leg nerve conduction velocity relative to Test Group 2 ([1]; after 12 weeks): significant nerve conduction velocity increases
- right leg nerve conduction velocity relative to Test Group 2 ([1]; at any of the times): A significant extension effect was not confirmed
- Nerve conduction velocity (m/sec) 0 weeks ([1]; left leg (drug-treated side)): 37.5 ± 8.0 m/sec
- Nerve conduction velocity (m/sec) 4 weeks ([1]; left leg (drug-treated side)): 37.8 ± 3.8 m/sec
- Nerve conduction velocity (m/sec) 8 weeks ([1]; left leg (drug-treated side)): 40.8 ± 3.4 m/sec
- Nerve conduction velocity (m/sec) 0 weeks [1, 4]: 38.7 ± 5.0 m/sec
- Nerve conduction velocity (m/sec) 4 weeks [1, 4]: 39.0 ± 2.3 m/sec
- Nerve conduction velocity (m/sec) 8 weeks [1, 4]: 39.9 ± 2.2 m/sec
- Nerve conduction velocity (m/sec) 12 weeks [1, 4]: 41.3 ± 2.1 m/sec
- SDF-1 relative to the solvent control group (SDF-1; 72 hours after treatment): significantly increased
- SDF-1, Drug group (SDF-1; [5]): 383 ± 36.0 pg/mL
- number of hippocampal CA1 pyramidal nerve cells relative to the group given the medium (Test Group 3) ([3]; rat 4-VO Test 1, day 42, s.c. twice daily, present drug 10, ornoprostil 0.1, PGE1•αCD 1.5 and 3 mg/kg): significant increase
- decrease in the number of hippocampal CA1 region nerve cells relative to Test Group 1 ([3]; rat 4-VO Test 2, Test Group 2: 10 mg/kg oral twice daily, day 8): significant suppression
- number of hippocampal CA1 region nerve cells ([3]; rat 4-VO Test 2, Test Group 7: medium up to day 8, 10 mg/kg oral for 34 days from day 9): increasing trend
- number of hippocampal CA1 region nerve cells relative to Test Group 4 ([3]; rat 4-VO Test 2, oral 1 mg/kg (Test Group 3)): significant increases
- number of hippocampal CA1 region nerve cells relative to Test Group 4 ([3]; rat 4-VO Test 2, oral 10 mg/kg (Test Group 6)): significant increases
- EGF relative to the solvent control group (EGF; 72 hours after treatment): significantly increased
- EGF, Drug group (EGF; [5]): 4995 ± 442 pg/mL
